From article PMC3709979 (PLoS ONE, 2013)
Where “and” joins values, the source holds several entries; their conditions need not be identical. Equal values may be shown once. Entries after “also recorded” stand apart in the source; their conditions may differ. Read-outs that look alike come from different tables or passages of the source. Values belong to the compound of their own block, whether it stands above or below them.

Experiments:
human recombinant ERβ [1] = target: T1, human recombinant ERβ (Homo sapiens, UniProt Q92731); parameters: purchased Invitrogen (Grand Island, NY); method as in J. Agric. Food Chem. 2005, 53, 6246–6253; conditions: read-out: IC50 ERβ; isolated compounds; ref J. Agric. Food Chem. 2005, 53, 6246–6253; cited from earlier work
[2] = tested on: estrogen responsive element (ERE)-luciferase in MCF-7 cells; assay: ERE-luciferase induction in MCF-7 cells; assay type: cell-based; conditions: 24 h; for ERE-luciferase induction in MCF-7 cells (in words): isolated compounds tested at 0.1 µM and 1 µM
Experimental: The Dual-Luciferase Reporter Assay System protocol from Promega (Madison, WI) was used to evaluate the activation of ERs through interaction with ERE at the promoter of estrogen responsive genes, resulting in the expression of the fused luciferase reporter. Briefly, MCF-7 cells grown in phenol-red free medium for 48 h, were trypsinized and re-suspended in serum-free medium at 1×10^7 cells/mL followed by a 10 min incubation at room temperature with pERE (3 µg/mL) obtained from Dr. V. C. Jordan, Northwestern University, and pRL-TK (Promega) (1 µg/mL) in a 4 mm gap cuvette before electroporation at 950 µF and 250 V using the Gene Pulser Xcell (BioRad Laboratories, Hercules, CA). Transfected cells were diluted in serum containing medium and plated in 24-well plates (2×10^5 cells/well). After 24 h, the cells were washed with PBS and treated with two concentrations of the crude extracts (2 µg/mL and 10 µg/mL) and two concentrations of the isolated compounds (0.1 µM and 1 µM), for an additional 24 h. […] Cell lysates (20 µL) were placed in white Costar 96-well plates, before the injection of Luciferase Assay reagent (100 µL) followed by a 12 s read by a FLUOstar OPTIMA (BMG Lab Tech, Offenburg, Germany). To quench the firefly luciferase expression and activation of the renilla expression, Stop & Glo reagent (100 µL) was injected followed by a 12 s read. In order to exclude the errors in transfection efficiency, average read out of the luciferase activity was normalized to the average associated pRL-TK read outs (renilla activity). The results were converted into fold induction by normalizing to DMSO.

[3] = tested on: estrogen-responsive alkaline phosphatase in Ishikawa cells; assay: Induction of estrogen-responsive alkaline phosphatase (AP) in Ishikawa cells; conditions: 96 h; for EC50: Homo sapiens, Ishikawa
Experimental: Ishikawa cells (5×10^4 cells/well) were pre-incubated in 96 well plates in estrogen-free medium for 24 h. Test samples dissolved in DMSO, were added at different concentrations and the DMSO concentration was kept lower than 0.1%. […] Plates were incubated at 37°C for 96 h. […] The maximum slope of the kinetic curve for every experiment well was calculated.

Tff1 mRNA in T47D cells = assay: Tff1 mRNA induction in T47D cells (qRT-PCR); assay type: cell-based; conditions: 8-PN 100 nM, LigF 5 µM, LigC 5 µM, 6 h, relative to DMSO
Experimental: Quantitative real-time polymerase chain reaction (qRT-PCR) was used to examine the modulation of the Tff1 induction following treatment of T47D cells with the extracts and the related compounds. Experiments were performed four independent times in triplicates. T47D cells (4×10^4 cells/mL) were preincubated in estrogen-free media for 72 h. […] Total RNA was isolated using the TRIzol Plus RNA purification kit (Invitrogen) and quantitated by UV analysis at 260 nm. cDNA synthesis was performed using qScript cDNA synthesis kit (Quanta Biosceiences) in a total volume of […], containing 4 µL qScript reaction mixture (5X), 1 µL qScript RT, 10 µL nuclease-free water, and 5 µL of RNA sample. The reaction was carried out for 5 min at 22°C, followed by 42°C for 30 min and a 5 min incubation step at 85°C. The PCR and subsequent analyses were performed using the ABI StepOne Plus RT-PCR system (Applied Biosystems). Quantitation was performed using the TaqMan technology of Applied Biosystems. Tff1 was evaluated using a predeveloped gene expression primer/probe set (Applied Biosystems' Assay on Demand). Briefly, the PCR reaction mixture was prepared in a total volume of 20 µL, containing 1 µL 20X TagMan Gene Expression Assay, 10 µL 2X TaqMan Gene Expression Master Mix, 4 µL cDNA template, and 5 µL RNase-free water. The reaction mixture was incubated at 50°C for 2 min followed by 10 min at 95°C. Polymerase chain reactions were performed in triplicate and consisted of 40 cycles with 15 s denaturing step at 95°C and 1 min annealing/extending step at 60°C each. The fluorescence signal was measured during the last 30 s of the annealing/extension phase. Following analysis, a fluorescence threshold value was set and threshold cycle (Ct) values were determined. […] The final results were expressed as a fold induction, where the levels of Tff1 observed in the DMSO-treated samples was defined as one.

ERα [4] = target: T2, ERα (Homo sapiens, UniProt P03372)
T2 sequence (P03372 1-595): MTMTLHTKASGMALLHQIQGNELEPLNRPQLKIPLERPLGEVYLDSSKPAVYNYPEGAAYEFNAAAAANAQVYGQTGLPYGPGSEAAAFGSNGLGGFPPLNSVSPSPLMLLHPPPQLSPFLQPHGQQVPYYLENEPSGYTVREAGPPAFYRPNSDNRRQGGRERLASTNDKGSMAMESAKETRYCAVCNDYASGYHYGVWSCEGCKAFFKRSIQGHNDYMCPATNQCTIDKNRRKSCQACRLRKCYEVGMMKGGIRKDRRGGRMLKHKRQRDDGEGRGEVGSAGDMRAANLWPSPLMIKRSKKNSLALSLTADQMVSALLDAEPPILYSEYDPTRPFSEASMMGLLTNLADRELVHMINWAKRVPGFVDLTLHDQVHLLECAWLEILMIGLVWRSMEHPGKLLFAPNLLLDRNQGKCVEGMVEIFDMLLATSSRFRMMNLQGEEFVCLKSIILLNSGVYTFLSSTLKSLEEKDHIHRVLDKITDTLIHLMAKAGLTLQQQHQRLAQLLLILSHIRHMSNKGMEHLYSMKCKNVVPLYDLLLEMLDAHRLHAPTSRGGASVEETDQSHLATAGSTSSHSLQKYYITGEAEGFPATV
Experimental: (§1) To correct for non-specific binding, a control containing all the added components except for the hot mix was considered. The incubation was carried out at room temperature for 2 h before 100 µL of 50% hydroxyapatite slurry (HAPS) was added. The tubes were incubated on ice for 15 min with vortexing every 5 min. The appropriate ER wash buffer was added (1 mL), and the tubes were vortexed before centrifuging at 10000×g for 5 min. The supernatant was discarded, and this wash step was repeated three times. The HAPS pellet containing the ligand-receptor complex was re-suspended in 200 µL of ethanol and transferred to scintillation vials. An additional 200 µL of ethanol was used to rinse the centrifuge tube.

ERα [5] = target: T2, ERα; assay: Pulsed ultrafiltration LC-MS screening for ERα ligands; assay type: binding; parameters: purchased Invitrogen (Grand Island, NY); conditions: crude MeOH extract 150 µg/ml, 1 h room temperature, denatured ER control
Experimental: A screening assay based on ultrafiltration mass spectrometry was used to identify the ligands of ER present in licorice crude extracts. Briefly, 150 µg/ml of the methanol crude extract was incubated for 1 h at room temperature with 50 pmol of ERα or ERβ in binding buffer consisting of 50 mM Tris-HCl (pH 7.5), 10% glycerol, 50 mM KCl, and 1 mM ethylenediaminetetraacetic acid (EDTA) in a total volume of 50 µL. Identical control incubations in which denatured ER was substituted for active ER was used to correct for nonspecific binding of compounds to the ultrafiltration membrane and holder. After incubation, each mixture was filtered through a Microcon (Millipore, Bedford, MA) YM-30 centrifugal filter containing a regenerated cellulose ultrafiltration membrane with a 30000 MW cutoff and washed three times with 200 µL aliquots of ammonium acetate buffer (pH 7.5) at 4°C to remove the unbound compounds. The bound ligands were released by adding 400 µL of methanol/water (90∶10; v/v) followed by centrifugation at 10000×g for 10 min. […] Aliquots (10 µL) were analyzed using LC-MS, which consisted of a reverse phase separation on a Shimadzu (Kyoto, Japan) Shim-Pack XR-ODS III C18 (1.6 µm, 2.0 mm ×50 mm) column and mass spectrometric analysis on a Shimadzu LCMS- IT-TOF mass spectrometer. […]

ERα [6] = target: T2, ERα; assay: biochemical
Experimental: as §1

[7] = Isomerization of isoliquiritigenin to liquiritigenin under bioassay conditions (LC-MS/LC-UV); assay type: physicochemical
Experimental: To evaluate this conversion and better define the compounds responsible for the observed estrogenic activity, LC-MS monitoring of the isomerization of these active principles in the cell-based assays was performed in parallel to every bioassay. One set of plates was considered for time 0, when there was no treatment and another set was considered for the final harvesting day for every experimental condition. The media exposed to cells were collected and extracted by adding sodium acetate buffer (100 mM, pH 5), followed by liquid-liquid extraction by water-saturated ethyl acetate.

Ishikawa cells = assay: Cytotoxicity in cell culture assays; assay type: cell-based; conditions: AP assay, reduction in the estrogenic response
Source text: The Ishikawa cell line was provided by Dr. R. B. Hochberg (Yale University, New Haven, CT) and was maintained in Dulbecco's Modified Eagle Medium (DMEM/F12) containing 1% sodium pyruvate, 1% nonessential amino acids (NEAA), 1% glutamax-1, 0.05% insulin, and 10% heat-inactivated FBS [32], [33], [34]. […] Two days before treating the cells, the medium was replaced with phenol red-free DMEM/F12 medium containing charcoal/dextran-stripped FBS and supplements. […] However, alkaline phosphatase was not inducible in ECC1 cells obtained from ATCC. Despite this controversy, we will keep the conventional name, Ishikawa, for this cell line throughout this paper. The MCF-7 cell line was purchased from ATCC. […] Two days prior to treating the cells, the medium was replaced with phenol red-free RPMI 1640 medium containing charcoal/dextran-stripped FBS with acetone-washed activated charcoal (100mg/mL) at 4°C for 30 min and centrifuged at 4000 rpm for 15 min at 4°C. This step was repeated in triplicate. Extracts and compounds were not toxic to cells at the applied concentrations, under these experimental conditions. DMSO concentrations for all cell culture assays were below 0.1%.

human recombinant ERβ [8] = target: T1, human recombinant ERβ; assay: biochemical
Experimental: as §1

[9] = read-out: AP induction Ishikawa cells EC50

T1 sequence (Q92731 whole entry): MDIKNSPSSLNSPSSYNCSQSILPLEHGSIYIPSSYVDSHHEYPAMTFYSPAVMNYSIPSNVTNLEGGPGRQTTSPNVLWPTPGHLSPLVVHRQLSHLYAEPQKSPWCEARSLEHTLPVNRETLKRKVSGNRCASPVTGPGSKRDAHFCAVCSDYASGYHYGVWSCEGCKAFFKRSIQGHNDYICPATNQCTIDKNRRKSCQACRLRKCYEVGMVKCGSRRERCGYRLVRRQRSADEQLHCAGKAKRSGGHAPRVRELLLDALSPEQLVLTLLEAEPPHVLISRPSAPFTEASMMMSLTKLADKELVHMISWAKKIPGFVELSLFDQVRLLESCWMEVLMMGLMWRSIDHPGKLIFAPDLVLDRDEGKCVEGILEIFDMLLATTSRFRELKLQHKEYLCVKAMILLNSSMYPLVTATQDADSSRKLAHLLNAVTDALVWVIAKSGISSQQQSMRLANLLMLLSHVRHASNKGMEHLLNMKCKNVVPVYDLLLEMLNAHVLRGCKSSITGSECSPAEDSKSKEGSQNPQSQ

EC50 [3, 9]: 0.19 ± 0.05 nM
SMILES: C[C@]12CC[C@@H]3c4ccc(O)cc4CC[C@H]3[C@@H]1CC[C@@H]2O [17β-estradiol, reference compound]

IC50 (ERα [6]): 16000 ± 1000 nM
EC50 [3, 9]: 2700 ± 200 nM
IC50 (human recombinant ERβ [8]): 7800 ± 100 nM
SMILES: O=C(/C=C/c1ccc(O)cc1)c1ccc(O)cc1O [LigC, isoliquiritigenin]
isomerization of LigC to LigF ([7]; ER binding buffer, 2 h at room temperature, LC-UV): did not show any isomerization of LigC to LigF; also recorded: did not show a conversion of LigC to LigF
isomerization of LigC to LigF ([7]; cell media of AP assay, 96 h with Ishikawa cells at 37°C, LC-MS): significant reduction in the LigC content and a corresponding increase in LigF formation; also recorded: mostly converted to LigF
isomerization of LigC to LigF ([7]; cell media of mRNA induction assay, 6 h with T47D cells at 37°C, LC-MS): did not show a significant formation of LigF from LigC; also recorded: the conversion was limited
concentrations with cytotoxic effects (Ishikawa cells): above 7.5 µM
Tff1 mRNA induction in T47D cells (Tff1 mRNA in T47D cells): induced Tff1, significantly

More lines, now with the values behind:

SMILES: CC(C)=CCc1c(O)cc(O)c2c1O[C@H](c1ccc(O)cc1)CC2=O [8-PN, 8-prenylnaringenin]
IC50 (human recombinant ERβ [1]): 1700 ± 100 nM
ERE-luciferase induction in MCF-7 cells (in words) [2]: showed induction of ERE-luciferase
EC50 ([3]; read-out: AP induction Ishikawa cells EC50, as given in text, 96 h): 6.6 nM
EC50 ([3]; read-out: AP induction Ishikawa cells EC50, isolated compounds, 96 h, n = 9): 6.65 ± 1.4 nM

SMILES: COc1cc(O)c(CC=C(C)C)c(O)c1C(=O)/C=C/c1ccc(O)cc1 [XH, xanthohumol]
ERE-luciferase induction in MCF-7 cells (in words) [2]: did not show any induction of ERE-luciferase
Tff1 mRNA induction in T47D cells (Tff1 mRNA in T47D cells): no Tff1 activity
AP induction Ishikawa cells EC50 ([3]; isolated compounds, n = 9): inactive

SMILES: O=C1C[C@@H](c2ccc(O)cc2)Oc2cc(O)ccc21 [LigF, liquiritigenin]
IC50 ERα (ERα [4]): very weak affinity for ERα
fold induction at 0.1 µM ([2]; Homo sapiens, MCF7, isolated compounds at 100 nM, DMSO set to 1): 2.1 ± 0.4
ERE-luciferase induction in MCF-7 cells (in words) [2]: showed induction of ERE-luciferase
binding to ERα in PUF-MS screening (ERα [5]): bound to ERα and ERβ
Tff1 mRNA induction in T47D cells (Tff1 mRNA in T47D cells): lower than that of 8-PN (0.1 µM), but the difference was not significant
IC50 (ERα [6]): > 200000 nM
EC50 [3, 9]: 3400 ± 400 nM
Maximum AP fold induction Ishikawa cells ([3]; maximum efficacy): 83 fold and 83.1±3.4 fold
